Measured values: PubChem BioAssay AID250 (DTP/NCI, 2004)
Several values for one entry are separate records, joined by “and”; a condition that tells them apart may be missing. Equal values may be shown once. Toxic doses and inconclusive results are not listed. The calls were made as follows: active = survival T/C of 150% or more; inactive = T/C below 125% in these data.

System: BDF1 mice, L1210 leukemia sc, survival T/C
Experiment: NCI In Vivo Anticancer Drug Screen. Data for tumor model L1210 Leukemia (subcutaneous) in B6D2F1 (BDF1) mice
Details: endpoint: median survival time, higher = longer survival
Method in brief: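 Expressed as T/C: measurement in compound-treated, tumor-bearing mice relative to vehicle-treated control mice, based on survival or tumor size.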

Measured: T/C

CC[C@](O)(C(=O)O)c1cc2n(c(=O)c1CO)Cc1cc3ccccc3nc1-2
inactive: dose: 0.5 mg/kg/injection, schedule: Q01DX009 (ip), vehicle: saline 104 % of control | dose: 0.5 mg/kg/injection, schedule: Q01DX009 (sc), vehicle: saline 104 % of control | dose: 1.0 mg/kg/injection, schedule: Q01DX009 (ip), vehicle: saline 102 % of control | dose: 1.0 mg/kg/injection, schedule: Q01DX009 (sc), vehicle: saline 104 % of control | dose: 2.0 mg/kg/injection, schedule: Q01DX009 (ip), vehicle: saline 116 % of control | dose: 2.0 mg/kg/injection, schedule: Q01DX009 (sc), vehicle: saline 110 % of control | dose: 6.25 mg/kg/injection, schedule: Q02DX005 (sc), vehicle: saline 115 % of control and 120 % of control | dose: 6.25 mg/kg/injection, schedule: Q04DX003 (sc), vehicle: saline 115 % of control and 116 % of control | dose: 8.4 mg/kg/injection, schedule: Q04DX003 (sc), vehicle: saline 122 % of control and 123 % of control | dose: 14.0 mg/kg/injection, schedule: Q07DX003 (sc), vehicle: saline 115 % of control and 122 % of control | dose: 18.0 mg/kg/injection, schedule: Q04DX003 (sc), vehicle: saline 118 % of control and 120 % of control | dose: 18.0 mg/kg/injection, schedule: Q07DX003 (sc), vehicle: saline 118 % of control and 120 % of control | dose: 20.0 mg/kg/injection, schedule: Q07DX003 (sc), vehicle: saline 120 % of control and 121 % of control | dose: 23.0 mg/kg/injection, schedule: Q07DX003 (sc), vehicle: saline 120 % of control and 122 % of control | dose: 30.0 mg/kg/injection, schedule: Q04DX003 (sc), vehicle: saline 120 % of control | dose: 30.0 mg/kg/injection, schedule: Q07DX003 (sc), vehicle: saline 120 % of control and 121 % of control | dose: 39.0 mg/kg/injection, schedule: Q07DX003 (sc), vehicle: saline 120 % of control and 122 % of control | dose: 39.0 mg/kg/injection, schedule: Q09DX003 (sc), vehicle: saline 116 % of control and 117 % of control | dose: 50.0 mg/kg/injection, schedule: Q01DX001 (sc), vehicle: saline 118 % of control and 120 % of control | dose: 65.0 mg/kg/injection, schedule: Q07DX003 (sc), vehicle: saline 121 % of control and 122 % of control | dose: 65.0 mg/kg/injection, schedule: Q09DX003 (sc), vehicle: saline 122 % of control | dose: 80.0 mg/kg/injection, schedule: Q04DX003 (sc), vehicle: saline 115 % of control and 118 % of control | dose: 80.0 mg/kg/injection, schedule: Q07DX003 (sc), vehicle: saline 120 % of control and 123 % of control | dose: 83.3 mg/kg/injection, schedule: Q01DX001 (sc), vehicle: saline 120 % of control and 121 % of control | dose: 98.0 mg/kg/injection, schedule: Q07DX003 (sc), vehicle: saline 118 % of control and 120 % of control | dose: 108.0 mg/kg/injection, schedule: Q07DX003 (sc), vehicle: saline 120 % of control and 122 % of control | dose: 108.0 mg/kg/injection, schedule: Q09DX003 (sc), vehicle: saline 122 % of control | dose: 122.0 mg/kg/injection, schedule: Q07DX003 (sc), vehicle: saline 118 % of control and 120 % of control | dose: 148.0 mg/kg/injection, schedule: Q01DX001 (sc), vehicle: saline 110 % of control | dose: 160.0 mg/kg/injection, schedule: Q04DX003 (sc), vehicle: saline 90 % of control and 93 % of control | dose: 160.0 mg/kg/injection, schedule: Q07DX003 (sc), vehicle: saline 110 % of control and 122 % of control | dose: 180.0 mg/kg/injection, schedule: Q09DX003 (sc), vehicle: saline 116 % of control and 118 % of control | dose: 246.0 mg/kg/injection, schedule: Q01DX001 (sc), vehicle: saline 110 % of control | dose: 300.0 mg/kg/injection, schedule: Q09DX003 (sc), vehicle: saline 100 % of control and 101 % of control | dose: 320.0 mg/kg/injection, schedule: Q07DX003 (sc), vehicle: saline 90 % of control | dose: 468.0 mg/kg/injection, schedule: Q07DX003 (sc), vehicle: saline 120 % of control and 121 % of control | dose: 731.0 mg/kg/injection, schedule: Q07DX003 (sc), vehicle: saline 90 % of control and 93 % of control | dose: 800.0 mg/kg/injection, schedule: Q07DX003 (sc), vehicle: saline 88 % of control
active: dose: 12.5 mg/kg/injection, schedule: Q02DX005 (sc), vehicle: saline 156 % of control | dose: 25.0 mg/kg/injection, schedule: Q02DX005 (sc), vehicle: saline 165 % of control and 170 % of control | dose: 25.0 mg/kg/injection, schedule: Q07DX003 (sc), vehicle: saline 150 % of control and 151 % of control | dose: 32.0 mg/kg/injection, schedule: Q07DX003 (sc), vehicle: saline 155 % of control and 158 % of control | dose: 40.0 mg/kg/injection, schedule: Q04DX003 (sc), vehicle: saline 160 % of control and 181 % of control | dose: 62.0 mg/kg/injection, schedule: Q07DX003 (sc), vehicle: saline 175 % of control and 176 % of control | dose: 78.0 mg/kg/injection, schedule: Q07DX003 (sc), vehicle: saline 180 % of control and 181 % of control | dose: 191.0 mg/kg/injection, schedule: Q07DX003 (sc), vehicle: saline 150 % of control

CC(C)Sc1nc(N)nc2nc[nH]c12
inactive: dose: 23.0 mg/kg/injection, schedule: Q01DX Z (sc), vehicle: methylcellulose (MC) 100 % of control | dose: 39.0 mg/kg/injection, schedule: Q01DX Z (sc), vehicle: methylcellulose (MC) 100 % of control | dose: 65.0 mg/kg/injection, schedule: Q01DX Z (sc), vehicle: methylcellulose (MC) 111 % of control | dose: 108.0 mg/kg/injection, schedule: Q01DX Z (sc), vehicle: methylcellulose (MC) 111 % of control | dose: 180.0 mg/kg/injection, schedule: Q01DX Z (sc), vehicle: methylcellulose (MC) 111 % of control | dose: 300.0 mg/kg/injection, schedule: Q01DX Z (sc), vehicle: methylcellulose (MC) 105 % of control | dose: 500.0 mg/kg/injection, schedule: Q01DX Z (sc), vehicle: methylcellulose (MC) 111 % of control

O=c1[nH]c(=S)c2[nH]c(=O)[nH]c2[nH]1
inactive: dose: 3.0 mg/kg/injection, schedule: Q01DX Z (sc), vehicle: methylcellulose (MC) 100 % of control | dose: 5.0 mg/kg/injection, schedule: Q01DX Z (sc), vehicle: methylcellulose (MC) 100 % of control
